From ChEMBL document CHEMBL5113385, “Natural products and synthetic analogues against HIV: A perspective to develop new potential anti-HIV drugs” (Eur J Med Chem, 2022) come the findings set out here.

SMILES strings stand for the structures. In brackets after ≈: the same amount, converted by molar mass.

For series [1], the system named is Human immunodeficiency virus. Nature of the series: Antiviral activity against HIV infected in human PBMC assessed as inhibition of viral infection at MOI of 0.5 incubated for 48 hrs followed by removal of infected supernatant and subsequent addition of supernatant to human LC-5 cells expressing DsRed1 measured after 72 hrs by EASY-HIT assay. The class given is functional, organism-based. Particulars: Human immunodeficiency virus 1, PBMC.

The target of series [2] is Human immunodeficiency virus type 1 reverse transcriptase (Human immunodeficiency virus 1) (UniProt Q72547). The experiment in a line: Displacement of [3H]TTP/polyA from HIV-1 reverse transcriptase at 200 ug/ml relative to control. The settings on record: dose 200.0 µg/ml.
Series [3] relates to Human immunodeficiency virus 1. Nature of the series: Antiviral activity against HIV-1 NL4-3 infected in human MT4 cells assessed as reduction in viral replication incubated for 48 hrs followed by addition of fresh medium containing compound measured after 2 days by ELISA. The class given is functional, organism-based. The settings on record: Human immunodeficiency virus 1, NL4-3, MT4, 48 h.

Another series concerns C8166. Nature of the series: Cytotoxicity against human C8166 cells assessed as reduction in cell viability by MTT assay. Type of series: functional.
Series [4] deals with T1, Human immunodeficiency virus type 1 reverse transcriptase (Human immunodeficiency virus 1, UniProt Q72547). The experiment in a line: Inhibition of wild-type HIV-1 reverse transcriptase by Picogreen assay.
The target of series [5] is T1, Human immunodeficiency virus type 1 reverse transcriptase. Nature of the series: Inhibition of HIV-1 reverse transcriptase using ABTS as substrate and RNA template primed with oligo(dT)12-18 in presence of digoxigenin/biotin-labeled nucleotides by ELISA.
Series [6] has the same target. The experiment in a line: Inhibition of recombinant HIV-1 reverse transcriptase using ABTS as substrate incubated for 1 hr by ELISA.
Series [7] concerns the target Human immunodeficiency virus type 1 integrase (Human immunodeficiency virus 1, UniProt Q7ZJM1). The experiment in a line: Inhibition of recombinant HIV-1 subtype C integrase using double-stranded FITC-labelled target DNA as substrate pre-incubated for 45 mins followed by substrate addition measured after 60 mins by strand transfer inhibition assay.
The test system of series [8] is Human immunodeficiency virus 1. The experiment in a line: Antiviral activity against HIV-1 assessed as viral growth inhibition. Type of series: functional, organism-based.
For series [9], the target named is T1, Human immunodeficiency virus type 1 reverse transcriptase. The experiment in a line: Inhibition of HIV-1 LTR reverse transcriptase infected in human CEM cells using RNA template incubated for 1 hr by RT-PCR based cell-free assay.
The target of series [10] is Human immunodeficiency virus type 1 protease (Human immunodeficiency virus 1) (UniProt Q72874). The experiment in a line: Inhibition of HIV-1 protease relative to control. Particulars: concentration not given here.
Series [11] is described as follows: Selectivity index, ratio of IC50 for human 1A2 cells to EC50 for HIV-1 MC99 harboring deltaTat/Rev infected in human 1A2 cells. The class given is toxicity, cell-based. The settings on record: read-out: Ratio IC50/EC50.
For series [12], the target named is Human immunodeficiency virus type 1 reverse transcriptase (Human immunodeficiency virus 1) (UniProt Q72547). The experiment in a line: Inhibition of HIV-1 reverse transcriptase using […] and oligo d(T)16 as primer at 200 ug/ml incubated for 1 hr by PicoGreen DNA fluorescence assay relative to control. The settings on record: dose 200.0 µg/ml.
Series [13] shares this target. The experiment in a line: Inhibition of HIV-1 reverse transcriptase at 200 ug/ml using poly(A) ribonucleotide as template and oligo d(T)16 as primer incubated for 1 hr by PicoGreen DNA fluorescence assay relative to control. Particulars: dose 200.0 µg/ml.
Series [14] has as its target T1, Human immunodeficiency virus type 1 reverse transcriptase. The experiment in a line: Inhibition of HIV-1 reverse transcriptase preincubated for 45 mins followed by substrate addition by immunoassay.
A short description of series [15]: Inhibition of wild-type HIV-1 BH10 reverse transcriptase-associated RNase H expressed in Escherichia coli using [gamma-32P]ATP-labeled 31Trna/21P as template/primer preincubated for 5 mins followed by template/primer addition by PAGE analysis. More on the design: species or system Human immunodeficiency virus 1.
The target in series [16] is Human immunodeficiency virus type 1 reverse transcriptase (Human immunodeficiency virus 1) (UniProt Q72547). Nature of the series: Inhibition of recombinant HIV-1 reverse transcriptase at 200 ug/ml by ELISA relative to control. Particulars: dose 200.0 µg/ml.
Series [17] relates to Human immunodeficiency virus 1. The experiment in a line: Antiviral activity against HIV-1 IIIB infected in human MT4 cells assessed as reduction in cytopathic effect measured after 5 days by Cell Titer Glo assay. Type of series: functional, organism-based. Particulars: Human immunodeficiency virus 1, IIIB, MT4, 120 h.
Series [18] concerns Human immunodeficiency virus 1. Nature of the series: Antiviral activity against HIV-1 MC99 harboring deltaTat/Rev infected in human 1A2 cells assessed as reduction in syncytium formation preincubated for 1 hr followed by virus infection measured after 3 days by inverted microscopy. The class given is functional, organism-based. The settings on record: Human immunodeficiency virus 1, MC99, 1A2.

In series [19] the test system is Human immunodeficiency virus 1. Nature of the series: Antiviral activity against HIV-1 NL4-3 infected in human TZM-bl cells assessed as viral growth inhibition by luciferase assay. Type of series: functional, organism-based. Particulars: Human immunodeficiency virus 1, NL4-3, TZM-bl.

Sequence of Human immunodeficiency virus type 1 integrase (Q7ZJM1 whole entry): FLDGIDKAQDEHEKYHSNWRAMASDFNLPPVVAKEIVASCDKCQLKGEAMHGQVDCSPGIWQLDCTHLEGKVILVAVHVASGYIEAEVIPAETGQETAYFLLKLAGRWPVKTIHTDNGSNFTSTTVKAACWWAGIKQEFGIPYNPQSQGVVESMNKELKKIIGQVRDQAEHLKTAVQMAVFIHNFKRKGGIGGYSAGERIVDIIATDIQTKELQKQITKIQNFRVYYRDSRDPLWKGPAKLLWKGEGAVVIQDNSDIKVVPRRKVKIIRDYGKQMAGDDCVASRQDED

For the compound `COc1oc(C2C/C(=C/C(C)=C/c3ccc(C(F)(F)F)cc3)CO2)c(C)c(=O)c1C` (stereo unspecified), the IC50 in series [1] was below 45 nM.
With `O=c1cc(-c2ccc(O)c(O)c2)oc2c([C@@H]3O[C@H](CO)[C@@H](O)[C@H](O)[C@H]3O)c(O)cc(O)c12`, the inhibition in series [2] amounted to 52%.
Consider `C=C(C)[C@]12C[C@@H](COC(C)=O)[C@@]34OC5(O[C@@H]1[C@@H]3[C@@H]1O[C@]1(CO)[C@@H](O)[C@@]1(O)[C@H]4[C@H]([C@H](C)[C@@H]1C(=O)c1ccccc1)[C@H](C)C[C@H](C(=O)c1ccccc1)[C@H](OC(C)=O)[C@@H](C(=O)c1ccccc1)CC[C@H]5O)O2`, for which, in [3], the half-maximal inhibitory concentration (IC50) is at most 0.25 nM.
Turning to `CC(C)=CCc1cc2ccc(=O)oc2c(CC=C(C)C)c1O`, the cytotoxic concentration (CC50) in the series with C8166 was above 200000 nM.
Compound `N#Cc1ccc2c(Oc3ccccc3OCCn3ccc(=O)[nH]c3=O)cc(F)cc2c1` showed an IC50 in series [4] of 4.8 nM.
For `COC(=O)/C=C\c1c(-c2cccs2)[nH]c2ccccc12`, in series [5], the IC50 was determined as 9.38 nM.
On to `O=C(O)[C@]1(O)C[C@H](O)[C@@H](O)[C@@H](O)C1`, for which the half-inhibitory concentration (IC50) in series [6] is 280000 nM.
`CC1(C)CCc2cc3cc(O)c(=O)oc3cc2O1`: the cytotoxic concentration (CC50) with C8166 was above 200000 nM.
With `CC(=O)N[C@H]1[C@H](O[C@H]2CC[C@]3(C)[C@H]4CC=C5[C@@H]6CC(C)(C)CC[C@]6(C(=O)O)CC[C@@]5(C)[C@]4(C)CC[C@H]3C2(C)C)O[C@H](CO)[C@@H](O)[C@@H]1O`, the IC50 in [7] is 18300 nM.
As for `C=CC(C)(C)c1cc2cc3c(cc2oc1=O)O[C@H](C(C)(C)O)[C@H]3O`, in the series with C8166, the 50% cytotoxic concentration (CC50) is above 200000 nM.
On to `CC1=C(C(=O)OCc2ccccc2)C(c2ccc(Cl)c([N+](=O)[O-])c2)NC(=O)N1` (stereo unspecified), for which the IC50 in series [8] amounted to 15 µg/mL (≈ 37.3 µM).
In turn, `O=C(OCc1ccccc1)N1OCCC1n1cc(COCc2ccccc2)c(=O)[nH]c1=O` (stereo unspecified) had an IC50 in series [9] of 1000 nM.
In [10], `C=C(C)[C@@H]1CC[C@@H]2[C@]3(CC[C@]4(C)/C(=C(\C)CC/C=C(/C)C(=O)O)CC[C@@]24C)C[C@]13CCC(=O)O` returned an inhibition of 85%.
For `C=C(C)[C@]12C[C@@H](COC(C)=O)[C@@]34OC5(O[C@@H]1[C@@H]3[C@@H]1O[C@]1(CO)[C@@H](O)[C@@]1(O)[C@H]4[C@H]([C@H](C)[C@@H]1C(=O)c1ccccc1)[C@H](C)C[C@H](C(=O)c1ccccc1)[C@H](C(=O)c1ccccc1)CCC[C@H]5O)O2`, the half-maximal inhibitory concentration (IC50) in series [3] was at most 0.25 nM.
As for `COc1cc(OC)c([C@@H]2CC[C@H]3C[C@@H](c4cc(OC)c(OC)cc4OC)Oc4cc(OC)c(O)c2c43)cc1OC`, the selectivity ratio in series [11] was determined as 3.7. For the same compound, the inhibition in [12] and in [13] was 41.4% throughout.
For the compound `O=C1CSC(c2ccc(O)cc2)N1c1nc2ccc(Cl)cc2s1` (stereo unspecified), half-maximal inhibition in series [14] (IC50) was put at 300 nM.
As to `C=CC(C)(C)c1cc2cc3c(c(CC=C(C)C)c2oc1=O)O[C@H](C(C)(C)O)C3`, in the series with C8166, the 50% cytotoxic concentration (CC50) is above 200000 nM.
In series [15], `Nc1ccc(S(=O)(=O)N2CCN(C(=O)c3cc(O)c(O)c(O)c3)CC2)cc1` registered a half-inhibitory concentration (IC50) of 720 nM.
On to `C=C(C)[C@@H]1Cc2c(cc3oc(=O)ccc3c2O)O1`, for which the cytotoxic concentration (CC50) in the series with C8166 is above 200000 nM.
For `O=c1c(O)c(-c2ccc(O)c(O)c2)oc2cc(O)cc(O)c12`, the inhibition in [16] was 43.4%.
As for `COc1cc(F)c(Oc2cc(N)nc(Nc3ccc(C#N)cc3)n2)c(F)c1`, the IC50 in series [17] was found to be 3 nM.
Regarding `CC1=C(C(=O)OCc2ccccc2)C(c2cccc(C(F)(F)F)c2)NC(=O)N1` (stereo unspecified), in [8], the 50% inhibitory concentration (IC50) was found to be 15 µg/mL (≈ 38.4 µM).
For the compound `COc1cc([C@@H]2CC(=O)c3c(cc(OC)c(OC)c3O)O2)cc(OC)c1OC`, the EC50 in series [18] amounted to 172000 nM. In addition, in [11], the selectivity ratio is 1.12.
For `COc1cc2c(c(O)c1OC)C(=O)C[C@@H](c1cc(O)c(OC)c(O)c1)O2`, the 50% effective concentration (EC50) in [18] is below 8020 nM. Besides, the selectivity ratio in series [11] worked out at 1.12.
`O=C1CSC(c2ccc(F)cc2)N1c1nc2c(Cl)cccc2s1` (stereo unspecified) displayed an IC50 in series [14] below 1 nM.
With `C=C(CO)[C@@H]1Cc2cc3ccc(=O)oc3cc2O1`, the 50% cytotoxic concentration (CC50) with C8166 was above 200000 nM.
In the case of `CCCCCOC(=O)C[C@H](NP(=O)(CO[C@@H](CF)Cn1ccc2c(=O)[nH]c(N)nc21)Oc1ccccc1)C(=O)OCCCCC` (stereo partly specified), the IC50 in [19] came out at 2000 nM.
